Data on two compounds can be found in ChEMBL document CHEMBL5729430, “ACLY inhibitors and uses thereof” (2022).

For this assay, the target named is T1, ATP-citrate synthase (Homo sapiens, UniProt P53396).
T1 sequence (P53396 whole entry): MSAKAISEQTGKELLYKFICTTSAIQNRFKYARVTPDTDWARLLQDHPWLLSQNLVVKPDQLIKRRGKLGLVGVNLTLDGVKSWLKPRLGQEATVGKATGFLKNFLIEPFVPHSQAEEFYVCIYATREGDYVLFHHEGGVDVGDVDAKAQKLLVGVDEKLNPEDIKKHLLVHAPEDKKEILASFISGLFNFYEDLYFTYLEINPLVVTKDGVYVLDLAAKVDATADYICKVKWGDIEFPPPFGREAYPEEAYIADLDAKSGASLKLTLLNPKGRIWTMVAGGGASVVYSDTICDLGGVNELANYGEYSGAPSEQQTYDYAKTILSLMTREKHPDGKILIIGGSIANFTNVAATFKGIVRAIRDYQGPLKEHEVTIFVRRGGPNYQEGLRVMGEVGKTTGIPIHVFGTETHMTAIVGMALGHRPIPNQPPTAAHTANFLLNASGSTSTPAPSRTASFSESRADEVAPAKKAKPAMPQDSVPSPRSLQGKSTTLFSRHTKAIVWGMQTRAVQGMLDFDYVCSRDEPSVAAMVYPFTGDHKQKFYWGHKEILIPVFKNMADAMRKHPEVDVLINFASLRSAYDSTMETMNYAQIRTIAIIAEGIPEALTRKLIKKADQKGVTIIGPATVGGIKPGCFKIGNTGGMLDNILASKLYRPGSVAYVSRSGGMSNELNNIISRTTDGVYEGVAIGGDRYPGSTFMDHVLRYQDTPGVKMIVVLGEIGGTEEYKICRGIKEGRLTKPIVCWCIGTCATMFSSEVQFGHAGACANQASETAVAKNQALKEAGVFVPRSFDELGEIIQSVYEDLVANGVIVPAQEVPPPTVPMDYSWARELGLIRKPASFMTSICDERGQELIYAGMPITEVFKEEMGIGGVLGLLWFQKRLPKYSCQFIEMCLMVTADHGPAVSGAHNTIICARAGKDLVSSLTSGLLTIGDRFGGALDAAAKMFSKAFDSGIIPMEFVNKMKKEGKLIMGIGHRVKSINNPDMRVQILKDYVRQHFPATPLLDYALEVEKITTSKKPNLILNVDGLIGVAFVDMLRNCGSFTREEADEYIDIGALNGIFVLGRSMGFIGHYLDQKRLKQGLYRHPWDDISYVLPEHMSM
Nature of the assay: ADP-Glo Assay: Compounds of the present invention were evaluated in an ADP-GLO assay as follows:a) Dilute cpd 1:3 in succession in DMSO by hand for each cpds for 12 ptsb) Add 0.1 μL diluted cpd solution to assay plate, each dose with 2 replicatesc) Centrifuge 1000 RPM for 1 mind) Add 5 μL ACL working solution to 384-well assay plate, centrifuge 1000 RPM for 1 mine) Incubate at 25° C. for 15 minf) Add 5 μL substrate working solution to initiate reactiong) Final ACL reaction concentrations: 3 nM ACL, 15 μM ATP, 3 μM CoA, 300 μM Citrate, 0.01% Brij35, 4 mM DTT, 1% DMSO;h) Reference final conc: 30 uM starting Conc, 3× dilution, 11+0 points. Test cpd conc: 30/100 uM starting Conc, 3× dilution, 11+0 points.i) Incubate at 25° C. for 60 minj) Add 10 μL ADP Glo reagent, centrifuge 1000 RPM for 1 mink) Incubate at 25° C. for 40 minl) Add 20 μL kinase detection reagent, centrifuge 1000 RPM for 1 minm) Incubate at 25° C. for 40 minn) Read on Envision for US LUM as RLU. (In general: ADP-Glo first removes unused ATP, then detects ADP through luciferase.)

The IC50 is the concentration that inhibits the measured activity by half. High values mean weaker potency in that assay, low ones greater potency in that assay. Turning to `O=S(=O)(c1cc(Cl)cc(Cl)c1)n1c(-c2cncnc2)cc2cc(Cl)ccc21`, the IC50 was greater than 20 µM.
The value for `O=C(O)c1cc2cc(Cl)ccc2n1S(=O)(=O)c1cc(Cl)cc(Cl)c1` was less than 0.5 µM.
